Experimental data published in PubChem BioAssay (NCI).
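Assay format: 96-well plates, 48-hour exposure. The concentration for full growth arrest is given as TGI.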

Experiments:
Experiment in all cases: NCI anticancer screen, dose series, 48 h
NCI-H460 lung = system: NCI-H460 lung
TK-10 renal = system: TK-10 renal
UACC-257 melanoma = system: UACC-257 melanoma
OVCAR-3 ovarian = system: OVCAR-3 ovarian
SF-268 CNS = system: SF-268 CNS
PC-3 prostate = system: PC-3 prostate
COLO 205 colon = system: COLO 205 colon
HOP-62 NSCLC = system: HOP-62 NSCLC
SW-620 colon = system: SW-620 colon
SF-295 CNS = system: SF-295 CNS
MOLT-4 leukemia = system: MOLT-4 leukemia
HCT-116 colon = system: HCT-116 colon
SK-MEL-28 melanoma = system: SK-MEL-28 melanoma
SNB-19 CNS = system: SNB-19 CNS
NCI-H226 lung = system: NCI-H226 lung
T-47D breast = system: T-47D breast
LOX IMVI melanoma = system: LOX IMVI melanoma
OVCAR-8 ovarian = system: OVCAR-8 ovarian
EKVX NSCLC = system: EKVX NSCLC
MCF7 breast = system: MCF7 breast
M14 melanoma = system: M14 melanoma
MDA-MB-435 = system: MDA-MB-435
786-0 renal = system: 786-0 renal
NCI/ADR-RES ovarian = system: NCI/ADR-RES ovarian
OVCAR-4 ovarian = system: OVCAR-4 ovarian
RPMI-8226 leukemia = system: RPMI-8226 leukemia
HOP-92 NSCLC = system: HOP-92 NSCLC
U251 CNS = system: U251 CNS
SNB-75 CNS = system: SNB-75 CNS
UO-31 renal = system: UO-31 renal
SR leukemia = system: SR leukemia
BT-549 breast = system: BT-549 breast
IGROV1 ovarian = system: IGROV1 ovarian
MALME-3M melanoma = system: MALME-3M melanoma
SK-OV-3 ovarian = system: SK-OV-3 ovarian
HCT-15 colon = system: HCT-15 colon
HL-60(TB) leukemia = system: HL-60(TB) leukemia
ACHN renal = system: ACHN renal
MDA-N = system: MDA-N
A498 renal = system: A498 renal
UACC-62 melanoma = system: UACC-62 melanoma
OVCAR-5 ovarian = system: OVCAR-5 ovarian
DU-145 prostate = system: DU-145 prostate
SK-MEL-5 melanoma = system: SK-MEL-5 melanoma
CCRF-CEM leukemia = system: CCRF-CEM leukemia
A549 NSCLC = system: A549 NSCLC
K-562 leukemia = system: K-562 leukemia
HCC-2998 colon = system: HCC-2998 colon
SN12C renal = system: SN12C renal
NCI-H23 lung = system: NCI-H23 lung
MDA-MB-231 breast = system: MDA-MB-231 breast
HT29 colon = system: HT29 colon
RXF 393 renal = system: RXF 393 renal
CAKI-1 renal = system: CAKI-1 renal
SK-MEL-2 melanoma = system: SK-MEL-2 melanoma
KM12 colon = system: KM12 colon
NCI-H522 lung = system: NCI-H522 lung
HS 578T breast = system: HS 578T breast
SF-539 CNS = system: SF-539 CNS

Compound: C=C=C(C)C(=O)N(C(C)C)C(C)C
- TGI (NCI-H460 lung): > 100 µM
- TGI (TK-10 renal): > 100 µM
- TGI (UACC-257 melanoma): > 100 µM
- TGI (OVCAR-3 ovarian): > 100 µM
- TGI (SF-268 CNS): > 100 µM
- TGI (PC-3 prostate): > 100 µM
- TGI (COLO 205 colon): > 100 µM
- TGI (HOP-62 NSCLC): > 100 µM
- TGI (SW-620 colon): > 100 µM
- TGI (SF-295 CNS): > 100 µM
- TGI (MOLT-4 leukemia): > 100 µM
- TGI (HCT-116 colon): > 100 µM
- TGI (SK-MEL-28 melanoma): > 100 µM
- TGI (SNB-19 CNS): > 100 µM
- TGI (NCI-H226 lung): > 100 µM
- TGI (T-47D breast): > 100 µM
- TGI (LOX IMVI melanoma): > 100 µM
- TGI (OVCAR-8 ovarian): > 100 µM
- TGI (EKVX NSCLC): > 100 µM
- TGI (MCF7 breast): > 100 µM
- TGI (M14 melanoma): > 100 µM
- TGI (MDA-MB-435): > 100 µM
- TGI (786-0 renal): > 100 µM
- TGI (NCI/ADR-RES ovarian): > 100 µM
- TGI (OVCAR-4 ovarian): > 100 µM
- TGI (RPMI-8226 leukemia): > 100 µM
- TGI (HOP-92 NSCLC): > 100 µM
- TGI (U251 CNS): > 100 µM
- TGI (SNB-75 CNS): > 100 µM
- TGI (UO-31 renal): > 100 µM
- TGI (SR leukemia): > 100 µM
- TGI (BT-549 breast): > 100 µM
- TGI (IGROV1 ovarian): > 100 µM
- TGI (MALME-3M melanoma): > 100 µM
- TGI (SK-OV-3 ovarian): > 100 µM
- TGI (HCT-15 colon): > 100 µM
- TGI (HL-60(TB) leukemia): > 100 µM
- TGI (ACHN renal): > 100 µM
- TGI (MDA-N): > 100 µM
- TGI (A498 renal): > 100 µM
- TGI (UACC-62 melanoma): > 100 µM
- TGI (OVCAR-5 ovarian): > 100 µM
- TGI (DU-145 prostate): > 100 µM
- TGI (SK-MEL-5 melanoma): > 100 µM
- TGI (CCRF-CEM leukemia): > 100 µM
- TGI (A549 NSCLC): > 100 µM
- TGI (K-562 leukemia): > 100 µM
- TGI (HCC-2998 colon): > 100 µM
- TGI (SN12C renal): > 100 µM
- TGI (NCI-H23 lung): > 100 µM
- TGI (MDA-MB-231 breast): > 100 µM
- TGI (HT29 colon): > 100 µM

Compound: CC(C)(C)OC(=O)NCCCCCCC(=O)Cc1ccccc1
- TGI (NCI-H460 lung): > 100 µM
- TGI (TK-10 renal): > 100 µM
- TGI (UACC-257 melanoma): > 100 µM
- TGI (OVCAR-3 ovarian): > 100 µM
- TGI (SF-268 CNS): > 100 µM
- TGI (PC-3 prostate): > 100 µM
- TGI (COLO 205 colon): > 100 µM
- TGI (HOP-62 NSCLC): > 100 µM
- TGI (SW-620 colon): > 100 µM
- TGI (SF-295 CNS): > 100 µM
- TGI (MOLT-4 leukemia): > 100 µM
- TGI (HCT-116 colon): > 100 µM
- TGI (RXF 393 renal): > 100 µM
- TGI (SK-MEL-28 melanoma): > 100 µM
- TGI (SNB-19 CNS): > 100 µM
- TGI (NCI-H226 lung): > 100 µM
- TGI (T-47D breast): > 100 µM
- TGI (LOX IMVI melanoma): > 100 µM
- TGI (CAKI-1 renal): > 100 µM
- TGI (OVCAR-8 ovarian): > 100 µM
- TGI (EKVX NSCLC): > 100 µM
- TGI (MCF7 breast): > 100 µM
- TGI (M14 melanoma): > 100 µM
- TGI (MDA-MB-435): > 100 µM
- TGI (786-0 renal): > 100 µM
- TGI (NCI/ADR-RES ovarian): > 100 µM
- TGI (OVCAR-4 ovarian): > 100 µM
- TGI (RPMI-8226 leukemia): > 100 µM
- TGI (HOP-92 NSCLC): > 100 µM
- TGI (SK-MEL-2 melanoma): > 100 µM
- TGI (U251 CNS): > 100 µM
- TGI (SNB-75 CNS): > 100 µM
- TGI (UO-31 renal): > 100 µM
- TGI (SR leukemia): > 100 µM
- TGI (BT-549 breast): > 100 µM
- TGI (IGROV1 ovarian): > 100 µM
- TGI (MALME-3M melanoma): > 100 µM
- TGI (SK-OV-3 ovarian): > 100 µM
- TGI (HCT-15 colon): > 100 µM
- TGI (ACHN renal): > 100 µM
- TGI (MDA-N): > 100 µM
- TGI (A498 renal): > 100 µM
- TGI (OVCAR-5 ovarian): > 100 µM
- TGI (DU-145 prostate): > 100 µM
- TGI (SK-MEL-5 melanoma): > 100 µM
- TGI (CCRF-CEM leukemia): > 100 µM
- TGI (A549 NSCLC): > 100 µM
- TGI (K-562 leukemia): > 100 µM
- TGI (HCC-2998 colon): > 100 µM
- TGI (SN12C renal): > 100 µM
- TGI (NCI-H23 lung): > 100 µM
- TGI (KM12 colon): > 100 µM
- TGI (NCI-H522 lung): > 100 µM
- TGI (MDA-MB-231 breast): > 100 µM
- TGI (HT29 colon): > 100 µM

Compound: CN(C)CCCNC(=O)N/N=C\c1cccc2ccccc12
- TGI (NCI-H460 lung): > 10 µM
- TGI (TK-10 renal): > 10 µM
- TGI (SF-268 CNS): > 10 µM
- TGI (PC-3 prostate): > 10 µM
- TGI (COLO 205 colon): > 10 µM
- TGI (HOP-62 NSCLC): > 10 µM
- TGI (SW-620 colon): > 10 µM
- TGI (SF-295 CNS): > 10 µM
- TGI (MOLT-4 leukemia): > 10 µM
- TGI (HCT-116 colon): > 10 µM
- TGI (RXF 393 renal): > 10 µM
- TGI (SK-MEL-28 melanoma): > 10 µM
- TGI (T-47D breast): > 10 µM
- TGI (LOX IMVI melanoma): > 10 µM
- TGI (OVCAR-8 ovarian): > 10 µM
- TGI (EKVX NSCLC): > 10 µM
- TGI (MCF7 breast): > 10 µM
- TGI (HS 578T breast): > 10 µM
- TGI (M14 melanoma): > 10 µM
- TGI (NCI/ADR-RES ovarian): > 10 µM
- TGI (OVCAR-4 ovarian): > 10 µM
- TGI (RPMI-8226 leukemia): > 10 µM
- TGI (HOP-92 NSCLC): > 10 µM
- TGI (SNB-75 CNS): > 10 µM
- TGI (UO-31 renal): > 10 µM
- TGI (SR leukemia): > 10 µM
- TGI (IGROV1 ovarian): > 10 µM
- TGI (MALME-3M melanoma): > 10 µM
- TGI (SK-OV-3 ovarian): > 10 µM
- TGI (SF-539 CNS): > 10 µM
- TGI (HCT-15 colon): > 10 µM
- TGI (HL-60(TB) leukemia): > 10 µM
- TGI (ACHN renal): > 10 µM
- TGI (MDA-N): > 10 µM
- TGI (A498 renal): > 10 µM
- TGI (UACC-62 melanoma): > 10 µM
- TGI (OVCAR-5 ovarian): > 10 µM
- TGI (DU-145 prostate): > 10 µM
- TGI (SK-MEL-5 melanoma): > 10 µM
- TGI (CCRF-CEM leukemia): > 10 µM
- TGI (A549 NSCLC): > 10 µM
- TGI (K-562 leukemia): > 10 µM
- TGI (HCC-2998 colon): > 10 µM
- TGI (SN12C renal): > 10 µM
- TGI (KM12 colon): > 10 µM
- TGI (NCI-H522 lung): > 10 µM
- TGI (MDA-MB-231 breast): > 10 µM
- TGI (HT29 colon): > 10 µM
